For one molecule, IC50 results are on record in patent publication US12173003B1, “Pyrrolo[3,2-C][2,6]naphthyridine-2-carboxylic acid compounds as CK2 inhibitors” (KING FAISAL UNIVERSITY, priority 2023, dated 2024).

The test system of assay [1] is PC3 (prostate). Briefly: In vitro cytotoxic activity MTT assay, PC3. The format is cell-based. The note with it: Homo sapiens, PC-3; PC3 cells, exposed for 96 hours; read-out: IC50, 50% inhibition of cell proliferation, PC3 (prostate). Here is the method: (§1) Compounds 1-16 were screened for their in vitro cytotoxic activity utilizing a 3-(4,5-dimethyl-thiazol-2-yl)-2,5-diphenyltetrazolium bromide (MTT) assay against selected cancer human cell lines consisting of PC3 (prostate), HCT116 (colon), A375 (melanoma), H1299 (lung), MIAPaCa-2 (pancreas), HL60 (leukemia), MCF7 (breast), MDA-MB-231 (breast) (T. Mosmann, J. Immunol. Meth., 1983, 65, 55-63). The cells were cultured at 37° C. in RMPI1640 medium supplemented with 10% fetal bovine serum, 50 IU/mL penicillin, and 50 μg/mL streptomycin in a 5% CO2 incubator. All cells were sub-cultured 3 times/week by trypsinisation. Viable cells were seeded and allowed to adhere for 12 h before a test drug was added in 96-well plates at an initial density of 1.0×10^5 cells/mL. Tumour cell lines were separately exposed to various concentrations of the tested compounds followed by incubation at a temperature of 37° C. during 96 h inside a medium of fresh RMPI 1640. Cells were subsequently incubated at 37° C. using MTT at 0.5 mg/mL during 4 h. After removal of supernatant, formazan crystals were dissolved in isopropanol and the optical density was measured at 570 nm. CX-4945 was used as a positive control.

In assay [2] the test system is HCT116 (colon). Put plainly: In vitro cytotoxic activity MTT assay, HCT116. The class given is cell-based. The note with it: Homo sapiens, HCT-116; HCT116 cells, exposed for 96 hours; read-out: IC50, 50% inhibition of cell proliferation, HCT116 (colon). As for the experimental part: as §1
Assay [3] concerns A375 (melanoma). Briefly: In vitro cytotoxic activity MTT assay, A375. The class given is cell-based. The note with it: Homo sapiens, A-375; A375 cells, exposed for 96 hours; read-out: IC50, 50% inhibition of cell proliferation, A375 (melanoma). As for the experimental part: as §1
(Formazan colour is commonly taken as a measure of viable cells.)

Assay [4] relates to H1299 (lung). Put plainly: In vitro cytotoxic activity MTT assay, H1299. The format is cell-based. The note with it: Homo sapiens, NCI-H1299; H1299 cells, exposed for 96 hours; read-out: IC50, 50% inhibition of cell proliferation, H1299 (lung). As for the experimental part:
as §1

The test system of assay [5] is MIAPaCa-2 (pancreas). Briefly: In vitro cytotoxic activity MTT assay, MIAPaCa-2. The class given is cell-based. The note with it: Homo sapiens, MIA PaCa-2; MIAPaCa-2 cells, exposed for 96 hours; read-out: IC50, 50% inhibition of cell proliferation, MIAPaCa-2 (pancreas). As for the experimental part: as §1
The subject of assay [6] is HL60 (leukemia). Briefly: In vitro cytotoxic activity MTT assay, HL60. The format is cell-based. The note with it: Homo sapiens, HL-60; HL60 cells, exposed for 96 hours; read-out: IC50, 50% inhibition of cell proliferation, HL60 (leukemia). Here is the method:
as §1

In assay [7] the test system is MCF7 (breast). Put plainly: In vitro cytotoxic activity MTT assay, MCF7. The class given is cell-based. The note with it: Homo sapiens; MCF7 cells, exposed for 96 hours; read-out: IC50, 50% inhibition of cell proliferation, MCF7 (breast). Here is the method:
as §1

Assay [8] deals with MDA-MB-231 (breast). Put plainly: In vitro cytotoxic activity MTT assay, MDA-MB-231. The class given is cell-based. The note with it: Homo sapiens; MDA-MB-231 cells, exposed for 96 hours; read-out: IC50, 50% inhibition of cell proliferation, MDA-MB-231 (breast). As for the experimental part:
as §1

The target in assay [9] is T1, recombinant human CK2 (Homo sapiens, UniProt P68400).
T1 construct: purchased Millipore
Briefly: CK2 Kinase Assay (33P-ATP, filter plate). The format is biochemical. The note with it: final ATP concentration 15 μM, 10 min at 30° C.; read-out: protein kinase CK2 IC50. Here is the method: CK2 Kinase Assay was conducted using the protocol as described in Pierre F. et al; J. Med. Chem. 2011, 54, 635-654. The tested compounds in aqueous solution were added at a volume of 10 μL to a reaction mixture comprising 10 μL of assay dilution buffer (ADB; 20 mM MOPS, pH 7.2, 25 mM β-glycerol phosphate, 5 mM EGTA, 1 mM sodium orthovanadate, and 1 mM dithiothreitol), 10 μL of substrate peptide (RRRDDDSDDD, dissolved in ADB at a concentration of 1 mM), 10 μL of recombinant human CK2 (RRββ-holoenzyme, 25 ng dissolved in ADB; Millipore). Reactions were initiated by the addition of 10 μL of ATP solution (90% 75 mMMgCl2, 75 μM ATP (final ATP concentration:15 μM) dissolved in ADB; 10% [γ-33P] ATP (stock 1 mCi/100 μL; 3000 Ci/mmol (Perkin-Elmer) and maintained for 10 min at 30° C. The reactions were quenched with 100 μL of 0.75% phosphoric acid and then transferred to and filtered through a phosphor cellulose filter plate (Millipore). After washing each well five times with 0.75% phosphoric acid, the plate was dried under vacuum for 5 min and, following the addition of 15 μL of scintillation fluid to each well, the residual radioactivity was measured using a Wallac luminescence counter. The IC50 values were derived from eight concentrations of test inhibitors.

T1 sequence (P68400 whole entry): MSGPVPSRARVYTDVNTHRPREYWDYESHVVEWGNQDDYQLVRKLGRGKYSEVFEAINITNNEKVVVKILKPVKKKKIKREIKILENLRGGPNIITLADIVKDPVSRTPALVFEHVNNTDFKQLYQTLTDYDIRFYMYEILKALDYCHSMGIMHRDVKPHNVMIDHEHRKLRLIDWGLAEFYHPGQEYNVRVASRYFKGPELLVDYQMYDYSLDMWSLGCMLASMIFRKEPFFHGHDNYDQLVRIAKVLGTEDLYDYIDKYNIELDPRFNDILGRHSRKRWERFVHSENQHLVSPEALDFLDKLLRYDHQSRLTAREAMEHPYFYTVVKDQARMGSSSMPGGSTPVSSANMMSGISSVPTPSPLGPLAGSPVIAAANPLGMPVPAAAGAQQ
T1 sequence (P67870 whole entry partner): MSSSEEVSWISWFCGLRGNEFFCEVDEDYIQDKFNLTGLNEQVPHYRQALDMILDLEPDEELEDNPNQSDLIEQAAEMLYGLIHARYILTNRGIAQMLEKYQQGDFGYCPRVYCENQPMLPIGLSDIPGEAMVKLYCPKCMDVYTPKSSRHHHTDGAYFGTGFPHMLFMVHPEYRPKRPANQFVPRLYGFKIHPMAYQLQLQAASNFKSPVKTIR

In the case of `O=C(O)c1cc2nc(Nc3cccc(Cl)c3)c3ccncc3c2[nH]1` [Compound 1, 5-((3-chlorophenyl)amino)-1H-pyrrolo[3,2-c][2,6]naphthyridine-2-carboxylic acid], the IC50 in assay [1] came to 2.4 µM; in [2], 1.1 µM; in assay [3], 2.6 µM; in assay [4], 1.5 µM; in assay [5], 0.9 µM; in [6] it was 2.2 µM. Besides, the IC50 in assay [7] came out at 3.5 µM; in assay [8], 3.9 µM; in [9], 0.021 µM.
